Test results as given in patent US11584737B2, “Heterocyclic compound” (TAKEDA PHARMACEUTICAL COMPANY LIMITED, priority 2018, dated 2023).

What follows are compounds tested against CDK12/CycK complex (Homo sapiens, UniProt Q9NYV4) (assay: Measurement of CDK12 inhibitory activity by binding assay (TR-FRET, 66 nM BODIPY-FL-labeled AT-7519)). Settings: inhibitory rate against CDK12 at 1 μM test compound, 66 nM BODIPY-FL-labeled AT-7519, 2 nM CDK12/CycK.
Procedure: Experimental Example 1: CDK12 Binding Assay
(3) Measurement of CDK12 Inhibitory Activity by Binding Assay
His-tagged CDK12/CycK complex was added to a binding assay buffer supplemented with BODIPY-FL labeled AT-7519, terbium-labeled streptavidin and biotin-labeled anti-histidine antibody, and the mixture was stood for not less than 60 min at room temperature. This solution was added to an assay plate containing a test compound dispensed therein, and the mixture was left standing for 120 min at room temperature. The final concentration of CDK12/CycK complex, BODIPY-FL-labeled AT-7519, terbium-labeled streptavidin and biotin-labeled anti-histidine antibody was set to 2 nM, 66 nM, 0.2 nM, and 0.4 nM, respectively. The fluorescence intensity derived from terbium and BODIPY-FL was measured using Envision. The signal value of each well was determined using the TR-FRET ratio calculated by the following formula. TR-FRET ratio=(fluorescence value of BODIPY-FL)÷(fluorescence value of terbium)
The inhibitory rate (%) of the test compound against CDK12 was calculated by the following formula. Inhibitory rate (%)=(1−(TR-FRET ratio of test compound−blank)÷(control−blank))×100
The TR-FRET ratio of the CDK12 enzyme reaction mixture under compound non-addition conditions is indicated as control, and the TR-FRET ratio under 3 μM AT-7519 addition conditions is indicated as blank.
The inhibitory rate of the test compound against CDK12 at […] is shown below.

Chain of CDK12/CycK complex (Q9NYV4 whole entry, species assumed): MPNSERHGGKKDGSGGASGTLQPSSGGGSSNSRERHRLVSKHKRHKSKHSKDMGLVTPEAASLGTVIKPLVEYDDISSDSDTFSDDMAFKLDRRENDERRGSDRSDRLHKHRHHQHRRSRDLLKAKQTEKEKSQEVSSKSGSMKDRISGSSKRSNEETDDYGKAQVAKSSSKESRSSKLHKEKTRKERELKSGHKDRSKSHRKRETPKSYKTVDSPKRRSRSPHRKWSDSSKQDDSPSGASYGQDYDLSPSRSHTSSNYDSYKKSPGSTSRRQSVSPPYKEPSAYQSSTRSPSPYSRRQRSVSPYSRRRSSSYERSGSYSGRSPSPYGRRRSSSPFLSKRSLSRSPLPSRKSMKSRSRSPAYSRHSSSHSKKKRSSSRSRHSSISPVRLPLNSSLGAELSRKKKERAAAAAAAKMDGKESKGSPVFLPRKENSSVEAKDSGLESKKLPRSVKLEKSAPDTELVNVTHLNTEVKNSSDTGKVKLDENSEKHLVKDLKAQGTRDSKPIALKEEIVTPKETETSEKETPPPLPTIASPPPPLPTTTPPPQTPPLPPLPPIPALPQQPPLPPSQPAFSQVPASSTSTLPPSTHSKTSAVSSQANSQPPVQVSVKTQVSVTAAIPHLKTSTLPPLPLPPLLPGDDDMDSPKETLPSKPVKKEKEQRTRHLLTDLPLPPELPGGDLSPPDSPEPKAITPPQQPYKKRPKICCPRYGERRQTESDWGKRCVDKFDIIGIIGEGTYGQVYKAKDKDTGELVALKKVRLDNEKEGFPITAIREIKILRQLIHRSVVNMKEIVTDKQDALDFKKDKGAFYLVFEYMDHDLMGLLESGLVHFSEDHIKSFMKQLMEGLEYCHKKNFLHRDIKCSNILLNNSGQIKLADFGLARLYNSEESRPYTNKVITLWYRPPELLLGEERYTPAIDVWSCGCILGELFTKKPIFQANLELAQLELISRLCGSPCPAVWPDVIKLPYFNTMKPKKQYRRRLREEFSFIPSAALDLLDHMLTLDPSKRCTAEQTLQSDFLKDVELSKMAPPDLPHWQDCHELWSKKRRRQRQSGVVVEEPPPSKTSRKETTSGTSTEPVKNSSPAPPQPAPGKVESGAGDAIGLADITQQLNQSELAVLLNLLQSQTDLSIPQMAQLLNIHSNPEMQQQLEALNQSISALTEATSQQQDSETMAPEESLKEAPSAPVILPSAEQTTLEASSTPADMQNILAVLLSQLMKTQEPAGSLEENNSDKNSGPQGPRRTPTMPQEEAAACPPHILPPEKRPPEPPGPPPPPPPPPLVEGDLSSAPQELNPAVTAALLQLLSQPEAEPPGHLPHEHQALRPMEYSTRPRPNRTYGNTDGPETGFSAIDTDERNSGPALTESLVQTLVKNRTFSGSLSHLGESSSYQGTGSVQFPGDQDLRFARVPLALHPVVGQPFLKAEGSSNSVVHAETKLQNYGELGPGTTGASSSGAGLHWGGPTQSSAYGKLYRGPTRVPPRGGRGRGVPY
Chain of CDK12/CycK complex (O75909 whole entry partner, species assumed): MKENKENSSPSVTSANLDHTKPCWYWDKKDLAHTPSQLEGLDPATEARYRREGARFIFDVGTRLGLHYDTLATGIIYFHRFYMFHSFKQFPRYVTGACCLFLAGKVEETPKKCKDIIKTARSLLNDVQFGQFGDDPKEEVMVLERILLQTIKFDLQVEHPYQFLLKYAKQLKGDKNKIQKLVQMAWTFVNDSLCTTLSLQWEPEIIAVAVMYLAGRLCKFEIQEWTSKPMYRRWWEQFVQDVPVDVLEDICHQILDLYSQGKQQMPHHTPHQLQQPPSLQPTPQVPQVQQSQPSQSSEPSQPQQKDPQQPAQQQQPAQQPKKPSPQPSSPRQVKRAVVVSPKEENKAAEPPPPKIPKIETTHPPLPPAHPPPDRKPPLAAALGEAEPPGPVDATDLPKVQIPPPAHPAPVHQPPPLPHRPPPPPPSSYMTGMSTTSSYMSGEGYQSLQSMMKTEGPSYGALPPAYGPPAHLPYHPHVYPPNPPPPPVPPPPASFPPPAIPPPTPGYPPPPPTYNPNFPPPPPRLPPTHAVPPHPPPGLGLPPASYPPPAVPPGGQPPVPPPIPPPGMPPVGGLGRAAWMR

In order of rising inhibition at 1 µM:
1. Cn1cc(-c2cnc(N(C(=O)NCc3ccccc3)[C@H]3CC[C@H](Nc4ncc(C#N)c(-c5ccc(C#N)s5)n4)CC3)cn2)cn1 [Example 495, 3-benzyl-1-(trans-4-((5-cyano-4-(5-cyano-2-thienyl)pyrimidin-2-yl)amino)cyclohexyl)-1-(5-(1-methyl-1H-pyrazol-4-yl)pyrazin-2-yl)urea]  81%
2. Cn1cc(-c2ccc(N(C(=O)NCc3ccccc3)[C@H]3CC[C@H](Nc4ncc(C#N)c(-c5ccc(C#N)s5)n4)CC3)nn2)cn1 [Example 538, 3-benzyl-1-(trans-4-((5-cyano-4-(5-cyano-2-thienyl)pyrimidin-2-yl)amino)cyclohexyl)-1-(6-(1-methyl-1H-pyrazol-4-yl)pyridazin-3-yl)urea]  86%
3. Cn1ccc(-c2ccc(N(C(=O)NCc3ccccc3)[C@H]3CC[C@H](Nc4ncc(C#N)c(-c5ccc(C#N)s5)n4)CC3)cn2)cc1=O [Example 492, 3-benzyl-1-(trans-4-((5-cyano-4-(5-cyano-2-thienyl)pyrimidin-2-yl)amino)cyclohexyl)-1-(1′-methyl-2′-oxo-1′,2′-dihydro-2,4′-bipyridin-5-yl)urea]  92%
4. COc1ncc(-c2cnc(N(C(=O)NCc3ccccc3)[C@H]3CC[C@H](Nc4ncc(C(F)(F)F)c(OC5COC5)n4)CC3)nc2)cn1 [Example 606, 3-benzyl-1-(2′-methoxy-5,5′-bipyrimidin-2-yl)-1-(trans-4-((4-(oxetan-3-yloxy)-5-(trifluoromethyl)pyrimidin-2-yl)amino)cyclohexyl)urea]  96%
5. COc1ncc(-c2cnc(N(C(=O)NCc3ccccc3)[C@H]3CC[C@H](Nc4ncc(C#N)c(N5CC(C)(O)C5)n4)CC3)cn2)cn1 [Example 620, 3-benzyl-1-(trans-4-((5-cyano-4-(3-hydroxy-3-methylazetidin-1-yl)pyrimidin-2-yl)amino)cyclohexyl)-1-(5-(2-methoxypyrimidin-5-yl)pyrazin-2-yl)urea]  97%
6. COc1ncc(-c2cnc(N(C(=O)OCc3ccccc3)[C@H]3CC[C@H](Nc4ncc(C#N)c(N5CC(C)(O)C5)n4)CC3)nc2)cn1 [Example 619, benzyl (trans-4-((5-cyano-4-(3-hydroxy-3-methylazetidin-1-yl)pyrimidin-2-yl)amino)cyclohexyl) (2′-methoxy-5,5′-bipyrimidin-2-yl)carbamate]  98%
7. Cc1cc(-c2nc(N[C@H]3CC[C@H](N(C(=O)NCc4ccccc4)c4cnc(-c5cnn(C)c5)cn4)CC3)ncc2C#N)[nH]n1 [Example 552, 3-benzyl-1-(trans-4-((5-cyano-4-(3-methyl-1H-pyrazol-5-yl)pyrimidin-2-yl)amino)cyclohexyl)-1-(5-(1-methyl-1H-pyrazol-4-yl)pyrazin-2-yl) urea]  98%
8. COc1ncc(-c2ccc(N(C(=O)COc3ccccc3)[C@H]3CC[C@H](Nc4ncc(C(F)(F)F)c(OC5COC5)n4)CC3)nc2)cn1 [Example 627, N-(5-(2-methoxypyrimidin-5-yl)pyridin-2-yl)-N-(trans-4-((4-(oxetan-3-yloxy)-5-(trifluoromethyl)pyrimidin-2-yl)amino)cyclohexyl)-2-phenoxyacetamide]  98%
9. Cc1cc(-c2nc(N[C@H]3CC[C@H](N(C(=O)NCc4ccccc4)c4ccc(-c5cnn(C)c5)nn4)CC3)ncc2C#N)[nH]n1 [Example 542, 3-benzyl-1-(trans-4-((5-cyano-4-(3-methyl-1H-pyrazol-5-yl)pyrimidin-2-yl)amino)cyclohexyl)-1-(6-(1-methyl-1H-pyrazol-4-yl)pyridazin-3-yl)urea]  100%
10. COc1ncc(-c2ccc(N(C(=O)OCc3ccccn3)[C@H]3CC[C@H](Nc4ncc(C(F)(F)F)c(N5CC(C)(O)C5)n4)CC3)nc2)cn1 [Example 628, pyridin-2-ylmethyl (trans-4-((4-(3-hydroxy-3-methylazetidin-1-yl)-5-(trifluoromethyl)pyrimidin-2-yl)amino)cyclohexyl) (5-(2-methoxypyrimidin-5-yl)pyridin-2-yl)carbamate]  100%
11. COc1ncc(-c2ccc(N(C(=O)NCc3ccccc3)[C@H]3CC[C@H](Nc4ncc(C(F)(F)F)c(N5CCCC(O)CC5)n4)CC3)nc2)cn1 (stereo partly drawn) [Example 592, 3-benzyl-1-(trans-4-((4-(4-hydroxyazepan-1-yl)-5-(trifluoromethyl)pyrimidin-2-yl)amino)cyclohexyl)-1-(5-(2-methoxypyrimidin-5-yl)pyridin-2-yl)urea]  101%
12. Cn1cc(-c2ccc(N(C(=O)NCc3ccccc3)[C@H]3CC[C@H](Nc4ncc(C#N)c(NCCCO)n4)CC3)cc2)cn1 [Example 199, 3-benzyl-1-(trans-4-((5-cyano-4-((3-hydroxypropyl)amino)pyrimidin-2-yl)amino)cyclohexyl)-1-(4-(1-methyl-1H-pyrazol-4-yl)phenyl)urea]  101%
13. COc1ncc(-c2ccc(N(C(=O)N[C@@H](C)c3ccccc3)[C@H]3CC[C@H](Nc4ncc(C(F)(F)F)c(N5CC(C)(O)C5)n4)CC3)nc2)cn1 [Example 633, 1-(trans-4-((4-(3-hydroxy-3-methylazetidin-1-yl)-5-(trifluoromethyl)pyrimidin-2-yl)amino)cyclohexyl)-1-(5-(2-methoxypyrimidin-5-yl)pyridin-2-yl)-3-((1S)-1-phenylethyl)urea]  102%
14. COc1ncc(-c2ccc(N(C(=O)COc3ccccc3)[C@H]3CC[C@H](Nc4ncc(C#N)c(NC5COC5)n4)CC3)nc2)cn1 [Example 587, N-(trans-4-((5-cyano-4-(oxetan-3-ylamino)pyrimidin-2-yl)amino)cyclohexyl)-N-(5-(2-methoxypyrimidin-5-yl)pyridin-2-yl)-2-phenoxyacetamide]  102%
15. COc1ncc(-c2ccc(N(C(=O)OCc3ccccc3)[C@H]3CC[C@H](Nc4ncc(C#N)c(N5CCCC(O)CC5)n4)CC3)nc2)cn1 (stereo partly drawn) [Example 599, benzyl (trans-4-((5-cyano-4-(4-hydroxyazepan-1-yl)pyrimidin-2-yl)amino)cyclohexyl) (5-(2-methoxypyrimidin-5-yl)pyridin-2-yl)carbamate]  102%
16. COc1ncc(-c2ccc(N(C(=O)N[C@H](C)c3ccccc3)[C@H]3CC[C@H](Nc4ncc(C(F)(F)F)c(N5CC(C)(O)C5)n4)CC3)nc2)cn1 [Example 631, 1-(trans-4-((4-(3-hydroxy-3-methylazetidin-1-yl)-5-(trifluoromethyl)pyrimidin-2-yl)amino)cyclohexyl)-1-(5-(2-methoxypyrimidin-5-yl)pyridin-2-yl)-3-((1R)-1-phenylethyl)urea]  103%
17. Cn1cc(-c2ccc(N(C(=O)NCc3ccccc3)[C@H]3CC[C@H](Nc4ncc(C#N)c(NC5COC5)n4)CC3)cc2)ccc1=O [Example 483, 3-benzyl-1-(trans-4-((5-cyano-4-(oxetan-3-ylamino)pyrimidin-2-yl)amino)cyclohexyl)-1-(4-(1-methyl-6-oxo-1,6-dihydropyridin-3-yl)phenyl)urea]  103%
18. COc1ncc(-c2ccc(N(C(=O)NCc3ccccc3)[C@H]3CC[C@H](Nc4ncc(C(F)(F)F)c(N5CC(C)(O)C5)n4)CC3)nc2)cn1 [Example 625, 3-benzyl-1-(trans-4-((4-(3-hydroxy-3-methylazetidin-1-yl)-5-(trifluoromethyl)pyrimidin-2-yl)amino)cyclohexyl)-1-(5-(2-methoxypyrimidin-5-yl)pyridin-2-yl)urea]  103%
19. COc1ncc(-c2ccc(N(C(=O)NCc3ccccc3)[C@H]3CC[C@H](Nc4ncc(C#N)c(N5CCCC(O)CC5)n4)CC3)nc2)cn1 (stereo partly drawn) [Example 595, 3-benzyl-1-(trans-4-((5-cyano-4-(4-hydroxyazepan-1-yl)pyrimidin-2-yl)amino)cyclohexyl)-1-(5-(2-methoxypyrimidin-5-yl)pyridin-2-yl)urea]  104%
20. COc1ncc(-c2ccc(N(C(=O)NCc3ccccn3)[C@H]3CC[C@H](Nc4ncc(C(F)(F)F)c(N5CC(C)(O)C5)n4)CC3)nc2)cn1 [Example 630, 1-(trans-4-((4-(3-hydroxy-3-methylazetidin-1-yl)-5-(trifluoromethyl)pyrimidin-2-yl)amino)cyclohexyl)-1-(5-(2-methoxypyrimidin-5-yl)pyridin-2-yl)-3-(pyridin-2-ylmethyl)urea]  104%
21. Cn1cc(-c2ccc(N(C(=O)NCc3ccccc3)[C@H]3CC[C@H](Nc4ncc(C#N)c(N5CC(C)(O)C5)n4)CC3)nc2)cn1 [Example 482, 3-benzyl-1-(trans-4-((5-cyano-4-(3-hydroxy-3-methylazetidin-1-yl)pyrimidin-2-yl)amino)cyclohexyl)-1-(5-(1-methyl-1H-pyrazol-4-yl)pyridin-2-yl) urea]  104%
22. Cn1cc(-c2ccc(N(C(=O)NCc3ccccc3)[C@H]3CC[C@H](Nc4ncc(C#N)c(NC5COC5)n4)CC3)nn2)cn1 [Example 532, 3-benzyl-1-(trans-4-((5-cyano-4-(oxetan-3-ylamino)pyrimidin-2-yl)amino)cyclohexyl)-1-(6-(1-methyl-1H-pyrazol-4-yl)pyridazin-3-yl)urea]  106%
